According to patent publication US8217079B2 (priority 2010, dated 2012):

How the values were obtained:
[1] = test system: stem cells obtained from PV or ET patients; conditions: sub-micromolar concentrations; cited from earlier work
[2] = test system: JAK2^V617F positive Polycythemia Vera; experiment: Phase II study of ITF2357 in combination with N-hydroxyurea in Polycythemia Vera; type: in vivo, human
Source text: A multicentre, randomized, open-label, phase II study testing Givinostat-Hydrochloride-Monohydrate (ITF2357) in combination with N-hydroxyurea (HU) in Polycythemia Vera (PV).
Population in the study: 44 patients of both genders with an established diagnosis of JAK2^V617F positive PV according to the revised WHO criteria, in need of cytoreductive therapy, non-responders to therapeutic doses of HU monotherapy for at least 3 months.
Duration of the treatment: up to a maximum of 24 weeks of continual administration.
Primary objective: To evaluate the efficacy of ITF2357 in combination with HU in patients with JAK2^V617F positive Polycythemia Vera non-responders to therapeutic doses of HU in monotherapy.
Results: Patients response has been evaluated according to the european criteria [as reported in G. Barosi et al. Blood 113, 4829-4833 (2009)].

[3] = patients on cytostatic therapy; cited from earlier work
[4] = test system: PRV-1 gene expression; conditions: in vivo; cited from earlier work
[5] = test system: PV; conditions: patients with PV; cited from earlier work

CCN(CC)Cc1ccc2cc(COC(=O)Nc3ccc(C(=O)NO)cc3)ccc2c1.Cl [ITF2357, Diethyl-[6-(4-hydroxycarbamoyl-phenylcarbamoyloxymethyl)-naphthalen-2-ylmethyl]-ammonium chloride]
clonogenic activity of stem cells [1]: inhibit the clonogenic activity | control of the clinico-hematologic parameters (response by european criteria) ([2]; ITF2357 50 mg/day combined with N-hydroxyurea 500 mg/day, preliminary data, 6 patients refractory to previous HU monotherapy): significant control of the clinico-hematologic parameters | amelioration of the clinical parameters ([2]; in combination with N-hydroxyurea, compared to HU monotherapy, patients with myeloproliferative syndromes, preferably polycythemia vera): significant amelioration of the clinical parameters

NC(=O)NO [N-hydroxyurea, reference compound]
side effects observed (drug tolerance) [3]: leg ulcers and buccal aphthous ulcers | PRV-1 gene expression [4]: increase

IFN-α
efficacy of therapy compared with N-hydroxyurea treatment [5]: more effective | PRV-1 expression [4]: significantly reduces

O=C(CCBr)N1CCN(C(=O)CCBr)CC1 [Pipobroman]
side effects observed (drug tolerance) [3]: gastric pain and diarrhea
